Experimental data published in patent US5248771A, “Process for preparing no-carrier-added radiohalogenated vinyl nucleosides” (Triumf, priority 1991, dated 1993).
Read-outs that look alike come from different tables or passages of the source.

How the values were obtained:
[1] = cited from earlier work
[2] = cited from earlier work; remark: listed apart in the source
[3] = test system: herpes virus; settings: depending on the strain of herpes virus; cited from earlier work
[4] = test system: herpes infected tissue; settings: S. Sacks, Abstract 97, 1988 Interscience Conference; cited from earlier work
[5] = test system: HSV-1 (ATCC Strain F); test: [125I]IVaraU uptake into HFF cells infected with HSV-1, gamma activity per tube; assay type: cell-based, HSV-1; HFF (Human Foreskin Fibroblast) cells; settings: HSV-1 (ATCC Strain F) infected HFF cells, MOI 1.0, 2.3×10^6 cpm/ml, 6 hours, 37° C.
Method: (§1) Upright roller tubes were seeded with 1.5×10^5 HFF (Human Foreskin Fibroblast) cells/tube in a volume of 1.0 ml of Minimal Essential Medium (MEM) with added 5% FCS (Fetal Calf Serum) and incubated at 37° C. overnight. The growth media was poured off and replaced with 1.0 ml of viral growth media (Med 199 Hank's salts with 2% FCS) containing ^125 I-IVaraU (2.3×10^6 cpm/ml). 100 μl of virus (diluted to appropriate concentration in viral growth media) was added to assay tubes. In this case, a multiplicity of infection of 1.0 was used. 100 μl of viral growth media was added to the control (viral uninoculated) tubes.
(§2) The tubes were centrifuged 5000 g×30 minutes at 37° C., incubated at 37° C., 5% CO2 for 6 hours, and the media was then poured off. The tubes were washed with 4×2 mls warm "cell" phosphate buffered saline (PBS), and 1.0 ml of trypsin-versene solution was added and the tubes were incubated at 37° C. for 5-10 minutes. The cell sheets were removed and transferred to 4 ml polystyrene tubes. The gamma activity was counted with a Gamma counter.

[6] = test system: HSV-2 (ATCC Strain G); test: [125I]IVaraU uptake into HFF cells infected with HSV-2, gamma activity per tube; assay type: cell-based, HSV-2; HFF (Human Foreskin Fibroblast) cells; settings: HSV-2 (ATCC Strain G) infected HFF cells, MOI 1.0, 2.3×10^6 cpm/ml, 6 hours, 37° C.
Method: as §1, §2

[7] = test system: HFF (Human Foreskin Fibroblast) cells; test: [125I]IVaraU uptake into uninoculated HFF cells (control), gamma activity per tube; assay type: cell-based; settings: 2.3×10^6 cpm/ml, 6 hours, 37° C.
Method: as §1, §2

[8] = test system: HSV 1 infected cells; test: uptake of [125I]IVaraU by HSV 1 infected cells compared with uninfected and HSV 2 infected cells; assay type: cell-based
Method: as §1
as §2, with “counter. […]” for “counter.”

[9] = in vivo; set-up: species or system HSV1; A/J mice; settings: mouse, in vivo, iv, 1 μCurie in 100 μL i.v. tail vein, read-out: brain uptake, % dose per gram in entire brain
Text: (§3) This example measured the biodistribution of [^125 I]-IVaraU in the bodies of mice infected with HSV throughout the entire body. The brain was emphasized. Various uninfected controls were included to make the interpretation clear.
(§4) […] strain A/J mice were used in all: (i) with [^125 I]IVaraU, 20 mice received HSV1 and 20 mice were uninfected; and (ii) with [^125 I]NaI (a control compared to IVaraU), again 20 mice received HSV1 and 20 mice were uninfected.
(§5) INFECTION: Seven days prior to injection of the drug, each A/J mouse was inoculated by scratching the lip and applying a suspension of herpes simplex virus 1 (HSV1); this was the Kastrukoff murine-adapted strain of HSV1. This inoculation technique is a literature technique which has been established to cause herpes foci of herpes infection in the brains of over 99% of mice so inoculated. See Kastrukoff LF, Lau AS, and Puterman ML. J Gen Virol 67 (1986) 613-621. The HSV1 inoculation may be considered to take place at time "zero minus seven days". ADMINISTRATION OF THE RADIOPHARMACEUTICAL: The mice were divided into four experimental groups based on the two variables +/- HSV1, and IVaraU/NaI. The infected mice were being compared to non-infected mice. The radiopharmaceutical ([^125 I]IVaraU or [^125 I]NaI) was diluted to give 1μ Curie per 100 μL. 100 μL was then injected into the tailvein of each mouse. (Injection may be considered to take place at "time zero".) ANALYSIS OF INDIVIDUAL BODY ORGANS: At times 1h, 4h, 24h, and 48h, 5 mice were taken from each experimental group and sacrificed by exsanguination (the carotid artery was severed with a surgical scalpel). Blood was collected. Each animal was dissected, and the following organs were removed: brain, liver, kidney, pancreas, spleen, stomach, heart, lung, and muscle. Each organ or tissue specimen was weighed and then ^125 I activity was counted in a gamma ray counter. From the data weight, ^125 I, and ^125 I injected dose result values of "% dose per gram" were calculated for the different tissue specimens.

[10] = test system: herpes simplex virus 1 (HSV1); test: in vivo; set-up: species or system HSV1; A/J mice
Text: as §3, §4, §5

[11] = test system: HSV1 strain KOS; test: [125I]IVaraU uptake in rabbit brain infected with HSV1, gamma counts of brain blocks; assay type: in vivo, HSV1; New Zealand White rabbits
Method: The rabbit brains were infected with HSV1and then [^125 I]IVaraU was injected. The infection was located by assaying for herpes antigen and also by considering the brain anatomy involved. The assay was performed for [^125 I]IVaraU by gamma ray counts on segments cut from the brain.
INFECTION: Three New Zealand White female rabbits ([…], 2.5-5.0 kg) were anaesthetized by standard intramuscular injections of ketamine and xylazine. A 3.5 inch french tomcat catheter was introduced into the right nostril and 100 μL of the virus inoculation solution was released onto the right cribiform plate (this is a non-invasive means to create a brain infection). The virus inoculation solution consisted of 3.7×10^6 plaque forming units per mL HSV1 strain KOS suspended in commercial media of the type "199 with Hanks' salts". Two rabbits denoted "A" and "B" received the virus suspension exactly as described. A third rabbit denoted "C" was a "control"; it received 100 μL "199 with Hanks' salts" but no virus. The three rabbits were returned to their cages; infection was allowed to develop for 5 days before the injection of [^125 I]VaraU was carried out. INJECTION OF DRUG: 5 days following HSV1 inoculation, each rabbit was given 0.1 to 0.2 millicuries [^125 I]IVaraU suspended in 1 mL standard phosphate buffered saline PBS). The drug was administered by injection into the right marginal ear vein. SACRIFICE OF THE RABBITS: 24H after the [^125 I]IVaraU injection, the rabbits were sacrificed by an overdose of the drug Somnotol (T.M.) (MTC Pharmaceuticals). Following death, each rabbit was perfused with 300-400 mL PBS introduced into the ascending aorta. (The perfusion procedure served to remove blood from vessels in the brain and the body in general.)
The skull was dissected; the brain was cut out and removed. The brain was then sectioned into thirty 0.5 cm thick coronal blocks. The cutting and numbering of the blocks was carried out in a systematic way with respect to brain anatomy. Brain blocks were immersed and stored in 10% formalin. COUNTING OF ^125 I ACTIVITY IN BRAIN BLOCKS: Each block was weighed and then counted in a well-type gamma ray counter. The "counts per minute per gram" was calculated for each block of tissue for rabbits "A", "B" and "C". From each "cpm per gram" in infected rabbits "A" and "B" was subtracted the "cpm per gram" in the corresponding brain block from the uninfected rabbit "C". (The typical value of "cpm per gram" was about 20,000 cpm per gram in rabbit "C".)

For `O=c1[nH]c(=O)n([C@@H]2O[C@H](CO)[C@@H](O)[C@@H]2O)cc1/C=C/Br` [BrVaraU, (E)-5(2 bromo vinyl)-arabinofuranosyl uracil], the “metabolic stability in vivo” value [1] is listed as “appeared metabolically stable in vivo”.
In the case of `O=c1[nH]c(=O)n([C@@H]2O[C@H](CO)[C@@H](O)[C@@H]2O)cc1/C=C/Cl` [ClVaraU], the “potency in vivo per unit weight” value [2] is listed as “less potent in vivo”.
For `O=c1[nH]c(=O)n([C@@H]2O[C@H](CO)[C@@H](O)[C@@H]2O)cc1/C=C/F` [FVaraU], the “potency in vivo per unit weight” value [2] is listed as “less potent in vivo”.
For `O=c1[nH]c(=O)n([C@@H]2O[C@H](CO)[C@@H](O)[C@@H]2O)cc1/C=C/I` [IVaraU], the “concentration effectively inhibiting herpes virus” value [3] is given as “approximately 1×10^-9 g/mL”, the “potency in vivo per unit weight” value [2] is given as “highly potent in vivo per unit weight” and the “metabolic stability in vivo” value [1] is given as “appeared metabolically stable in vivo”.
In the case of `O=c1[nH]c(=O)n([C@@H]2O[C@H](CO)[C@@H](O)[C@@H]2O)cc1/C=C/[123I]` [[^123 I]IVaraU], the “concentrated in herpes infected tissue” value [4] is given as “concentrated in herpes infected tissue”.
For `O=c1[nH]c(=O)n([C@@H]2O[C@H](CO)[C@@H](O)[C@@H]2O)cc1/C=C/[125I]` [[^125 I]IVaraU], the “Activity/Tube (Average)” value [5] was 59,914 cpm, the “Activity/Tube (Average)” value [6] was 14,462 cpm and the “Activity/Tube (Average)” value [7] was 1,332 cpm. For the same molecule, the “uptake by HSV 1 vs HSV 2 infected cells” value ([8]; HSV 1 vs HSV 2 infected cells) was “HSV 1 infected cells took up more radio compound than HSV 2 infected cells”, the “specific uptake by HSV 1 infected cells” value ([8]; vs uninfected cells) was “taken up specifically by HSV 1 infected cells, as compared with uninfected cells” and the tissue uptake at 1 h ([9]; Infected) was 1.49 %ID/g. The tissue uptake at 4 h ([9]; Infected) was 0.36 %ID/g, the tissue uptake at 24 h ([9]; Infected) was 0.0379 %ID/g and the tissue uptake at 48 h ([9]; Infected) was 0.0181 %ID/g. It also gave a tissue uptake at 1 h ([9]; Uninfected) of 1.27 %ID/g, a tissue uptake at 4 h ([9]; Uninfected) of 0.229 %ID/g and a tissue uptake at 24 h ([9]; Uninfected) of 0.0024 %ID/g. The tissue uptake at 48 h ([9]; Uninfected) was 0.0005 %ID/g, the “brain uptake Ratio infected/uninfected” value ([10]; 1H) was 1.18 and the “brain uptake Ratio infected/uninfected” value ([10]; 4H) was 1.57. For the same molecule, the “brain uptake Ratio infected/uninfected” value ([10]; 24H) was 15.8, the “brain uptake Ratio infected/uninfected” value ([10]; 48H) was 36.2 and the “(corrected) activities in brain regions” value ([11]; infected rabbits A and B minus uninfected C, forebrain) was “higher in the forebrain, especially in the olfactory lobes”. For the same molecule, the “activities towards the hindbrain” value ([11]; infected rabbits, corrected) was “approached background”, the “activity in right olfactory lobe vs trigeminal ganglia and Level 1” value ([11]; infected rabbits, corrected) was “higher than in the trigeminal ganglia and Level 1” and the “activity in right vs left olfactory lobe” value ([11]; infected rabbits, corrected, virus given in right nostril) was “higher in the right olfactory lobe than the left”. The “typical cpm per gram in brain blocks of uninfected rabbit C” value ([11]; uninfected rabbit "C", 24H after 0.1 to 0.2 millicuries i.v.) was “about 20,000 cpm per gram”.
